Measurements: a melting point compilation (Tetko et al.; mined from patent text by program, amines drawn as free bases though some values may be those of a salt)

| melting point | Compound |
| --- | --- |
| 138 to 141 °C | CCCOC(=O)C1=C(C)NC(C=O)=C(C(=O)OC)C1c1ccccc1C#N (configuration not stated) |
| 218 to 220 °C | O=C(Nc1cccc2c1C(=O)c1c-2n[nH]c1C1CCN(C(=O)c2cccs2)CC1)NN1CCOCC1 |
| 150 °C | CCOC(=O)c1cc(NC(=O)NCC(=O)N2[C@@H](C(=O)OC(C)(C)C)CC[C@H]2c2ccccc2)ccc1O (racemic) |
| 53 to 54 °C | N#Cc1c(C(F)(F)F)ccc(Cl)c1Cl |
| 110 °C | Cc1cc(C)cc(S(=O)(=O)c2nnc(C(F)(F)F)s2)c1 |
| 76 to 77 °C | COc1cc(-c2ccc(C#N)o2)ccc1Br |
| 228 °C | CC1(C)CCC2CCCCC2C1NC=NC#N (configuration not stated) |
| 90 to 93 °C | Cc1ccc2nc(-c3ccccc3)cc(Cl)c2c1 |
| 97 to 100 °C | CC(O)=C(C#N)C(=O)Oc1ccc(Cl)cc1 |
| 58 °C | CC(COc1ccccc1)OS(C)(=O)=O (configuration not stated) |
| 164 °C | COc1ccc2c(c1OS(=O)(=O)C(F)(F)F)COCc1cc(OC)c(OC)c(OC)c1-2 |
| 160 to 161 °C | CN1C(=O)SC(C)(S(=O)(=O)c2cccc3c(Br)cccc23)C1=O (configuration not stated) |
| 179 to 180 °C | O=C(O)c1cn(C2CC2)c2c(F)c(F)c(F)c(F)c2c1=O |
| 159 to 160 °C | CC1Cc2ccccc2C(C(S)(C#N)C(=O)O)=N1 (configuration not stated) |
| 164 °C | CCCCCc1noc(-c2ccc(N3CCN(C(=O)c4ccccc4C(F)(F)F)CC3)nn2)n1 |
| 161 to 162 °C | CNC(=O)C1CC(C)(C)Oc2ccc([N+](=O)[O-])cc21 (configuration not stated) |
| 132 °C | CSc1nc2ccccc2n2cc(-c3ccccc3)cc12 |
| 149 to 150 °C | COc1ccc(-c2cc3c(OC)cc(OC)cc3nc2OCC#N)cc1 |
| 143 to 145 °C | CC(C)C(=O)O[C@H]1[C@H](C)OC(=O)[C@@H](NC(=O)OC(C)(C)C)COC(=O)[C@@H]1Cc1ccccc1 |
| 150 to 151 °C | CCCSc1ccc(NS(=O)(=O)c2cccs2)c2[nH]c(C(=O)OCC)cc12 |
| 78 to 80 °C | OCC#Cc1ccccn1 |
| 191 to 193 °C | CS(=O)(=O)c1ccc(-c2cnn(CC(F)(F)F)c(=O)c2Oc2cccnc2)cc1 |
| 151 to 153 °C | CC1(C)Cc2cc(NC(N)=O)c3c(c2C(c2ccccc2)=N1)CC(C)(C)O3 |
| 165 to 167 °C | COC(=O)c1c2c(c3cc(OC)c(OC)c(OC)c3c1-c1cc(OC)c(OC)c(OC)c1)OCOC2=O |
| 180 to 182 °C | OC(CSc1nc[nH]n1)(Cn1cncn1)c1ccc(Cl)cc1Cl (configuration not stated) |

| melting point | Compound |
| --- | --- |
| 126 to 127 °C | CC(C)(C)c1cc(-c2csc(CO)n2)cc(C(C)(C)C)c1O |
| 193 to 195 °C | O=C(CC(c1ccccc1)(c1ccccc1)c1ccccc1)Nc1ccc(N2CCNCC2)cc1 |
| 200 °C | Cc1c(Cl)ccc2c1[nH]c1c(C(=O)NO)cccc12 |
| 223 to 225 °C | CS(=O)(=O)Nc1cc2oc(N)cc(=O)c2cc1Oc1ccccc1 |
| 128 to 130 °C | CCOC(=O)c1cnc2c(SCN3CCSCC3)cccn2c1=O |
| > 260 °C | O=C1CC(c2cccs2)=Nc2ccc(I)cc2N1 |
| 235 to 237 °C | COc1cc2cncnc2cc1OC |
| 218 to 220 °C | C=C1CC2C(CCC3(C)C2CCC3(O)C(C)=O)C2(C)CCC(=O)C=C12 (configuration not stated) |
| 89 to 91 °C | N#CC=Cc1ccc(Cl)cc1C(=O)c1ccccc1 |
| 250 °C | O=c1nc(-c2ccccn2)sc2cc(F)ccc12 |
| 89 to 91 °C | CCOc1nc2cccc(CC)c2c(=O)o1 |
| 269 to 271 °C | CC(=O)NC[C@H]1CN(c2ccc(-n3cnnc3S)c(F)c2)C(=O)O1 |
| 176 to 178 °C | CC(C)COc1ccc(C(=O)N/C(=C\c2ccc(OCC(F)(F)F)cc2)C(=O)NCCO)cc1 |
| 198 °C | O=C(Cn1ccnc1)c1ccc(-c2ccccc2)cc1 |
| 214 to 216 °C | CONS(=O)(=O)c1ccc(C(=O)C=Cc2cc(-c3cc4ccccc4n3C)c(OC)cc2OC)cc1 |
| 293 to 295 °C | CCOc1c(F)cc2[nH]c(=O)c(=O)[nH]c2c1[N+](=O)[O-] |
| 190 to 192 °C | COc1cn(-c2ccc(-n3cc(Cl)cn3)cc2F)nc(-c2ccnn2-c2ccccc2)c1=O |
| 220 °C | Cc1cn(Nc2cccc(Cl)c2)c(=S)n1-c1ccc(Br)cc1 |
| 149 °C | Cc1nn(C(=O)NCC2CC2(Cl)Cl)c(=O)n1N (configuration not stated) |
| 90 to 91 °C | COc1ccc(C#N)c(F)c1OC(C)=O |
| 177 to 178 °C | COc1ccc2cc(C#N)ccc2c1Br |
| 120 to 121 °C | COc1cc2c(cc1OC)C(C)N(C(=O)Cc1cccc([N+](=O)[O-])c1)CC2 (configuration not stated) |
| 173 to 174 °C | COc1cc(Cl)c(-n2nnc3c(-c4ccccc4C)nc(C)nc32)c(OC)c1 |
| 83.5 to 84 °C | COc1nc2c(cc1C#N)CCCCC2 |
| 120 to 122 °C | COc1cc(COc2nn(CCO)cc2CO)ccc1OCc1nc(-c2ccco2)oc1C |

| melting point | Compound |
| --- | --- |
| 285 to 287 °C | O=C(O)c1cc(Cl)c2cccnc2c1O |
| 116 to 127 °C | CCCCCN(C(=O)OC(C)(C)C)c1nc(N(C)Cc2ccccc2)c2ncn(CC(=O)O)c2n1 |
| 241 °C | COc1ccc(Nc2nc3cccc(-c4ccc(CN5CCS(=O)(=O)CC5)cc4)n3n2)cc1 |
| 95 to 98 °C | O=[N+]([O-])c1ccc2[nH]cc(CCCI)c2c1 |
| 121 to 124 °C | O=C(O)CN(C(=O)CCc1nc2c(F)c(F)cc(F)c2s1)c1ccccc1 |
| 104 °C | N=c1sc2cc(OC(F)(F)F)ccc2n1CCSc1ccccn1 |
| 229 °C | COc1cc([N+](=O)[O-])ccc1S(=O)(=O)N1C(=O)C(N)(c2ccccc2Cl)c2cc(Cl)ccc21 (configuration not stated) |
| 83 to 85 °C | FC(F)(F)c1cccc(-n2cnnc2Oc2ccccc2)c1 |
| 83.4 to 84.2 °C | O=C(NCC1(c2nc(C3CC3)cs2)CC1)c1ccccc1C(F)(F)F |
| 86.5 to 89.5 °C | CCCCOCCc1ccc(C2=CCC(c3ccc(Br)cc3)CC2)cc1 (configuration not stated) |
| 64 °C | Cc1cccc(C(=O)C2CC2)c1N |
| 86 °C | COc1cccc2c1CC(N(CCCc1cn(C)c3ccc(F)cc13)CC1CC1)CO2 (configuration not stated) |
| 198 to 200 °C | CC[C@@]12C[C@H](O)[C@](O)(c3c(F)cccc3F)C[C@H]1CCc1cc(O)ccc12 |
| 74 to 77 °C | COC(=O)CC[C@H](NC(=O)OC(C)(C)C)C(=O)O |
| 180 to 182 °C | Cc1ccc(S(=O)(=O)NCc2ccc(CCN3CCN(c4ccncc4)CC3)cc2)cc1 |
| 88.6 to 90.1 °C | COC(=O)C(Cc1ccc(OCCN(C)c2nc3ccccc3o2)cc1)Sc1ccc(C)cc1 (configuration not stated) |
| 192 to 193 °C | CC(C)(C)OC(=O)N1CCCC2(CCN(c3ccc4nc(-c5ccc(F)cc5)c(-c5ccnc6[nH]ccc56)n4n3)CC2)C1 |
| 256 to 257 °C | O=C(O)Cc1sc(Nc2ccccc2)nc1-c1ccc(Cl)cc1 |
| 136 to 138 °C | CCCCOCCOc1ccc(-c2ccc3c(c2)C=C(C(=O)Nc2ccc(CC(=O)c4nccn4CCC)cc2)CCN3CC(C)C)cc1 |
| 105 to 106 °C | CC(C)n1cnc2c(Nc3ccncc3)nc(F)nc21 |
| 167 to 170 °C | CN1CC(C(Oc2ccccc2N)c2ccccc2)OCC1=O (configuration not stated) |
| 113 °C | O=C(c1ccc2ccn(CCOc3ccc(CC(OCC(F)(F)F)C(=O)O)cc3)c2n1)C1CC1 (configuration not stated) |
| 159 to 162 °C | C#CCOc1cc(F)cc(F)c1-n1c(=O)cc(C(F)(F)F)n(C)c1=O |
| 168 to 170 °C | Cc1ccc(C(Cl)=CC(=O)NC(Cc2ccccc2)C(=O)O)cc1 (configuration not stated) |
| 86 to 87 °C | CC(=Cc1ccc(C(C)C)cc1)c1ccc2c(c1)C(C)(C)CCC2(C)C |

| melting point | Compound |
| --- | --- |
| 96 to 98 °C | CC(C)(C)OC(=O)CN(C(=O)CNC(=O)Nc1cccc(CC(=O)O)c1)c1ccccc1C(=O)c1ccccc1 |
| 150 to 152 °C | COc1ccc(Br)c(C(=O)NNS(=O)(=O)c2ccccc2)c1 |
| 146 to 149 °C | COc1c(C)c(OC(=O)c2c(C)c(C)c(OCCCOc3ccc(F)cc3)c(C)c2OC)c(C)c(C)c1C(N)=O |
| 56 to 58 °C | COC=C1CN(C(c2ccccc2)c2ccccc2)C1 |
| 290 °C | Oc1ncn(-c2cccc(F)n2)n1 |
| 183 to 186 °C | C#CCN1C(=O)c2cccc3cccc1c23 |
| 117 to 119 °C | COc1ccc2nc(C)sc2c1N |
| 220 °C | Cn1c2nc3ccccc3nc2c2cccc(C=O)c21 |
| 198 to 200 °C | COC(=O)c1ccc(C(=O)C#Cc2cc(-c3cccs3)c(OC)cc2OC)cc1 |
| 81 to 84 °C | CN(N)C(=O)NCC(F)F |
| 120 to 121 °C | O=C1CCCN1c1cccc(CO)c1 |
| 328 to 330 °C | CNC(=O)c1ccc(-c2cnc3[nH]c(=O)n(CC4CCOCC4)c3n2)cc1 |
| > 200 °C | CC1(C)COC(=O)C(C(=O)Nc2cccc(C(F)(F)F)c2)C1=O (configuration not stated) |
| 92 to 93 °C | c1coc(-c2nnc(Sc3cnccn3)o2)c1 |
| 154 to 156 °C | COc1cc(-c2ccc(N)cn2)cc(OC)c1OC |
| 129 to 130 °C | N#Cc1ccc2c(c1)c(C1CCC3(CC1)OCCO3)cn2Cc1ccccc1 |
| 288 to 292 °C | Cn1c2c(c3c4c(N)nc(N)nc4ccc31)CCCC2 |
| 89.5 to 92 °C | NCCOCC(O)c1cccc2ccccc12 (configuration not stated) |
| 72 to 74 °C | CC#CC(C)n1nnc2cc3c(=O)n(C(C)Cn4ncnn4)nnc3cc2c1=O (configuration not stated) |
| 152 to 155 °C | CC(C)c1cccc(C(C)C)c1NC(=O)Nc1c(-c2cccc(O)c2)c2cccnc2n(C)c1=O |
| 112 to 113 °C | Oc1ccc(Cc2ccccc2)c2cccnc12 |
| 154 to 157 °C | N#Cc1ccc(OCCCc2cc3c(cc2OCc2ccccc2)CC(CCc2ccccc2)O3)cc1 (configuration not stated) |

| Compound | melting point |
| --- | --- |
| CCCCN1C(=O)C2C3CCC(O3)C2C1=O (configuration not stated) | 82 to 83 °C |
| Fc1ccc(N2CCN(Cc3ccc(CCl)cc3)CC2)cc1 | 81 to 83 °C |
| OC(CCCN1CC=C(c2ccc(Cl)cc2)CC1)c1ccc(F)cc1 (configuration not stated) | 103 to 105 °C |
| CC1COC2(CCN(C(=O)C(Cl)Cl)CC2)O1 (configuration not stated) | 115 °C |
| C=CC(C)(C)CC(NC(=O)c1ccc(Cl)cc1)NC(=N[N+](=O)[O-])Nc1cccnc1 (configuration not stated) | 186 °C |
